Test results published in patent US4136165A, “Cosmetic preparations with alkoxybenzoic acid esters as inflammation inhibitors and method” (Henkel Kommanditgesellschaft auf Aktien, priority 1976, dated 1979).
Like-named read-outs stand apart in the source and are kept apart here.

Tests used:
[1] = test system: Carrageenin edema, rat's paw; test: Rat's paw test, carrageenin edema (amputation methodology); format: in vivo; conditions: 1000 mg/kg p.o. one hour before initiating the inflammation, paws weighed three hours after carrageenin
From the text: The so-called amputation methodology, described by C. H. Winter in Journal of Pharmaceutical and Experimental Therapeutics, Vol. 141 (1963), page 369, was used as a further rat's paw test. In this method, the test animals are killed three hours after injecting the substance causing the inflammation, and the weights of the paws are ascertained. The product used to cause inflammation in these tests is carrageenin. The inhibiting of the development of the edema of the rats' paws by the test substance, which was administered orally one hour before initiating the inflammation,serves as an indication of the efficacy and is expressed in percentages.

[2] = test system: UV edema in hairless mouse; test: Ultraviolet test on hairless mice (UV edema, skin fold thickness); format: in vivo; conditions: 5% in Vaseline, skin fold thickness after 30 hrs
Protocol: However, an ultraviolet test was carried out on hairless mice which also provide information concerning the efficacy of the substances for use as agents for treating sunburn. The backs of the hairless mice were exposed to radiation by an ultraviolet lamp for thirty minutes from a distance of 60 cm, thus causing a cutaneous inflammation. […] The dosage of the test substances was the same as in the rat's paw test. The degree of formation of edema was determined by measuring the skin fold thickness after thirty hours. The degree of the percentage inhibition of the erythema is given in the following Table I and was determined by comparing the change in the skin fold thickness, caused in treated test animals by exposure to radiation, with the change in the skin fold thickness in animals which, although exposed to radiation, had not been treated.

[3] = test system: UV erythema in guinea pig; test: Ultraviolet erythema test in guinea pigs; format: in vivo; conditions: 5% Tincture, mean of assessments six hours after radiation and the following morning
Protocol: Guinea pigs were subjected to the ultraviolet erythema test in a further experiment. For this purpose, the hair was removed from the backs of the test animals by shearing and treatment with a depilatory cream. The test animals were then exposed to radiation for eight minutes, and the marked test areas were then treated with the test solutions or salves. A second application was effected after thirty minutes, and a third and the following treatments were effected at intervals of sixty minutes. Six hours after having been exposed to radiation, the animals were washed, dried and visually assessed.
Assessment was repeated the following morning and the mean value for each substance was calculated from the two assessments. The two spots exposed to radiation directly behind the ears were chosen as reference points which had been exposed to radiation and which had not been treated. The intensity of the redness of these spots was equated with 0. Disappearance of the redness at the treated places was assessed by plus points up to +4 (no spots visible), and an intensification of the redness was assessed with minus points up to -4 (formation of blisters). The total of the assessments from the two evaluations, expressed in the ratio to the number of animals times 8 as the maximum attainable value (= 100%) gives the percentage inhibiting value of the substance. The inhibiting values ascertained in this manner are given in the following table under the heading "UR Erythema Guinea Pigs".

[4] = Orientating test of toxicity; conditions: in vivo
Protocol: The alkoxybenzoic acid esters, to be used in accordance with the present invention, were tested for their inflammation-inhibiting properties in the experiments described hereinafter. An orientating test of their toxicity was first carried out in order to be able to establish the test dosages for further experiments.

Dextran edema, rat's paw = test: Edema of the rat's paw test, dextran edema; format: in vivo; conditions: 1000 mg/kg p.o. thirty minutes before dextran, measured thirty minutes after dextran injection
Protocol: The edema of the rat's paw test, as described by F. Kemper in "Arzneimittelforschung" 10 (1960), p. 777, was used as a test for assessing the compounds with respect to their suitability for inhibiting inflammation. In order to produce the edema, 0.1 ml of 6% dextran solution was injected to a depth of approximately 5 mm between the second and third toe of the right hind paw of the test animals. While only the dextran solution was administered to the control test animals, the various test substances were injected or administered per os to the test animals in the quantities given in Table I thirty minutes before the test animals were injected with the dextran solution. The volume of the paws was determined by means of the electrical volume measuring device described in detail by Kemper & Amelin in "Zeitschrift fur die gesamte experimentelle Medizin" 131 (1958), p. 407.
The measurements were taken thirty minutes after the dextran solution injection. For the purpose of comparison, the left untreated paw was in each case measured at the said times. The amount of the swelling in animals which had been treated with the test substance and in non-treated animals thirty minutes after the dextran injection were used to calculate the degree of the inhibiting of the edema as a percentage of the swelling which occurred in animals which had not received any test substance.

| SMILES | Rat's Paw Test Carrageenin Edema Inhibition [1] [%] | UV Edema in Hairless Mouse Inhibition After 30 hrs [2] [%] | UV Erythema in Guinea Pig Inhibition [3] [%] | LD50 ([4]; read-out: Orientating Toxicity) [mg/kg] | Rat's Paw Test Dextran Edema Inhibition (Dextran edema, rat's paw) [%] | Orientating Toxicity [4] | LD50 [4] [mg/kg] |
| --- | --- | --- | --- | --- | --- | --- | --- |
| CCCOC(=O)c1ccc(OC)cc1 [Compound A, n-Propyl Anisate] | 12 | 49 | 60 | > 1000 | 25 |  |  |
| COC(=O)c1ccc(OC)cc1 [Compound B, Methyl Anisate] | 18 | 41 | 31 | > 1000 | 28 |  |  |
| COc1ccc(C(=O)OC(C)C)cc1 [Compound C, Isopropyl Anisate] | 9 | 38 | 40 | > 1000 | 20 |  |  |
| CCCCOC(=O)c1ccc(OC)cc1 [Compound D, Butyl Anisate] | 11 | 36 | 51 | > 1000 | 9 |  |  |
| COc1ccc(C(=O)OC(C)(C)C)cc1 [Compound E, Tert.-Butyl Anisate] | 41 | 30 | 43 | > 1000 | 11 |  |  |
| COc1ccc(C(=O)OCC(C)(C)C)cc1 [Compound F, 2,2-Dimethyl-propyl Anisate] | 30 | 35 | 48 |  | 15 | 22 1.0 gm/kg |  |
| COc1ccc(C(=O)OCc2ccccc2)cc1 [Compound G, Benzyl Anisate] | 19 | 31 | 46 |  | 5 |  | > 1000 |
